{"source": "ChEMBL document CHEMBL2321687", "about": "“Identification of a novel arylpiperazine scaffold for fatty acid amide hydrolase inhibition with improved drug disposition properties” (Bioorg Med Chem Lett, 2013)", "molecular_target": "T1, Fatty-acid amide hydrolase 1 (Mus musculus, UniProt O08914)", "T1 sequence (O08914 whole entry)": "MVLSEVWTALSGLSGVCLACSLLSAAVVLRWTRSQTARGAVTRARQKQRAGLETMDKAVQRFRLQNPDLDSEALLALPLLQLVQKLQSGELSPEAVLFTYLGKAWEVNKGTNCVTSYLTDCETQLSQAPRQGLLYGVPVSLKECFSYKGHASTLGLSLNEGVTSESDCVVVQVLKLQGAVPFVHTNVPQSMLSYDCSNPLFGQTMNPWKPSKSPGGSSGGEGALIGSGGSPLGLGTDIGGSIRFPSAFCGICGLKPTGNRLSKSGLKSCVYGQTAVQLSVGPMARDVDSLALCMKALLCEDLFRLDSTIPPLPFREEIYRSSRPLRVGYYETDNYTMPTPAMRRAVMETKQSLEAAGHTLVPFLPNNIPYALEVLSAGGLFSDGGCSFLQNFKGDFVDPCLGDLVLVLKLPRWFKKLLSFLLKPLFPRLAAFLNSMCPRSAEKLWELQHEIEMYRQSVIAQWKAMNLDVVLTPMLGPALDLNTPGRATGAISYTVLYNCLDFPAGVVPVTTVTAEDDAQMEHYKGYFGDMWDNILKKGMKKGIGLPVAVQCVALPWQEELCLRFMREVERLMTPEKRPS", "test": "Inhibition of FAAH in mouse brain homogenate using [3Hethanolamine]AEA as substrate incubated for 20 mins prior to substrate addition measured after 15 mins by beta counting analysis", "type": "tissue-based", "data": [{"compound": "Fc1ccc(OCCCCOc2cccc(N3CCNCC3)c2)cc1", "values": [{"measurement": "Ki", "value": "> 500", "unit": "nM"}]}, {"compound": "NC(=O)c1ccn(-c2cccc(C(=O)N3CCN(CCCCCCc4ccccc4)CC3)c2)c1", "values": [{"measurement": "Ki", "value": "> 500", "unit": "nM"}]}, {"compound": "O=C(NCCCCCCc1ccccc1)N1CCN(c2cccc(-n3cccc3)c2)CC1", "values": [{"measurement": "Ki", "value": 263, "unit": "nM"}]}]}
